Reference: patent publication US20030104099A1, “Mineral delivery systems and methods” (priority 2001, published 2003)
Like-named read-outs stand apart in the source and are kept apart here.

How the values were obtained:
[1] = for solids in 25 grams of the filtered solution after drying: 2 grams acid + 2 grams calcium carbonate in 50 grams distilled water, four hours, 25 grams dried; for water solubility at ambient: distilled water
Description: To a 250 ml beaker, 2 grams of adipic acid powder is dissolved in 50 grams of distilled water. Then, 2 grams of calcium carbonate powder (Vicron 25-11 FG from Specilaty Minerals, Inc.) are added. […] After four hours, the slurry is filtered through a filter paper.
To a 250 ml beaker, 2 grams of tartaric acid powder is dissolved in 50 grams of distilled water. Then, 2 grams of calcium carbonate powder are added. […] After four hours, the slurry is filtered through a filter paper.
To a 250 ml beaker, 2 grams of malic acid powder is dissolved in 50 grams of distilled water. Then, 2 grams of calcium carbonate powder are added. […] After four hours, the slurry is filtered through a filter paper.
To a 250 ml beaker, 2 grams of citric acid powder is dissolved in 50 grams of distilled water. Then, 2 grams of calcium carbonate powder are added. […] After four hours, the slurry is filtered through a filter paper.
To a 250 ml beaker, 2 grams of fumaric acid powder is dissolved in 50 grams of distilled water. Then, 2 grams of calcium carbonate powder are added. […] After four hours, the slurry is filtered through a filter paper.

[2] = 120 grams distilled water, 3 grams acid, 39° C., 50 rpm, 30 minutes mixing, dried at 110° C.

SMILES | solids in 25 grams of the filtered solution after drying [1] [grams] | water solubility at ambient [1] [%] | soluble calcium salt contained in the fluid ([2]; 75 grams ALPHA GRANDE bubble gum base) [%] | soluble calcium salt contained in the fluid ([2]; 75 grams DREYCO gum base) [%] | solubility in methanol (solids from ALPHA GRANDE bubble gum base fluid) | solubility in methanol (solids from DREYCO gum base fluid)
O=C([O-])CC(O)C(=O)[O-].[Ca+2] (stereo not drawn) [Calcium malate] | 0.5 | 2.0 | – | – | – | –
O=C([O-])C(O)C(O)C(=O)[O-].[Ca+2] (stereo not drawn) [Calcium tartrate] | 0.15 | – | – | – | – | –
O=C([O-])/C=C/C(=O)[O-].[Ca+2] [Calcium fumarate] | 0.6 | 2.4 | 1.19 | 1.46 | not soluble | not soluble
